In patent publication US9145405B2, “Oxadiazole compound and preparation method thereof, pharmaceutical composition and use thereof” (SHANGHAI JIAO TONG UNIVERSITY, priority 2011, dated 2015):
≈ marks a conversion by molar mass, not a printed value. Like-named read-outs stand apart in the source and are kept apart here.

Tests used:
[1] = tested on: Cox_B3 virus; assay: Anti-Cox_B3 test: inhibition of cytopathic effect (CPE) in infected Vero cells, Reed-Muench; assay type: cell-based; conditions: for IC50: read-out: IC50 (half-inhibitory concentration for viruses)
Excerpt: The present examples verifies experimental results of anti-Cox_B3 of the compounds 1-137of the present invention, Pleconaril, 3-[3,5-dimethyl-4-[5-(3-methy-1,2-oxazolyl)propoxy]phenyl]-5-(trifluonomethyl) -1,2,4-oxadiazole is used as positive control.

[2] = tested on: Vero cells; assay: Toxicity (half toxic concentration) in the anti-Cox_B3 test on Vero cells; assay type: cell-based
[3] = Cox_B3 virus in Vero cells, CPE, Reed-Muench method

Compound	IC50 (half-inhibitory concentration for viruses) [1, 3] [µg/mL]	TC50 (half of the toxic concentration) [2] [µg/mL]	IC50 [1, 3] [µg/mL]	TC50 (half of the toxic concentration) ([2]; Vero cells, Cox_B3) [µg/mL]	IC50 ([1]; Vero) [µg/mL]
CCON=Cc1ccc(OCCOc2c(C)cc(-c3noc(C(F)(F)F)n3)cc2C)cn1 [Compound 44, 6-[2,6-dimethyl-4-[(5-(trifluoromethyl)-1,2,4-oxadiazole-3-yl)phenoxyl]ethoxyl]pyridine-2-oxy-ethylketoxime]	0.078	34.35	–	–	–
COC(=O)c1cnc(OCCOc2c(C)cc(-c3noc(C(F)(F)F)n3)cc2C)c(F)c1 [Compound 49, 6-[2,6-dimethyl-4-[(5-(trifluoromethyl)-1,2,4-oxadiazole-3-yl)phenoxyl]ethoxyl]-5-fluoro-3-pyridinecarboxylate]	0.096	35.36	–	–	–
Cc1cc(-c2noc(C(F)(F)F)n2)cc(C)c1OCCOC(C)(C)C [Compound 90, 3-[3,5-dimethyl-4-[(2-tert-butoxy)ethoxyl]phenyl]-5-(trifluoromethyl)-1,2,4-oxadiazole]	0.15	38.28	–	–	–
COC(=O)c1cnc(OCCOc2c(C)cc(-c3noc(C)n3)cc2C)c(F)c1 [Compound 103]	0.07	39.55	–	–	–
Cc1nc(-c2ccc(OCCOc3c(C)cc(-c4noc(C(F)(F)F)n4)cc3C)cc2)no1 [Compound 111, 3-[3,5-dimethyl-4-[2-[4-(5-methyl-1,2,4-oxadiazole-3-yl)phenoxyl]ethoxyl]phenyl]-5-(trifluoromethyl)-1,2,4-oxadiazole]	–	–	0.051 (≈ 0.111 µM)	38.21	–
Cc1cc(-c2noc(C(F)(F)F)n2)cc(C)c1OCCOc1ccc(-c2noc(C(F)(F)F)n2)cc1 [Compound 112, 3-[3,5-dimethyl-4-[2-[4-[5-(trifluoromethyl)-1,2,4-oxadiazole-3-yl]phenoxyl]ethoxyl]phenyl]-5-(trifluoromethyl)-1,2,4-oxadiazole]	–	–	0.032 (≈ 0.0622 µM)	34.98	–
Cc1nc(-c2ccc(OCCOc3c(C)cc(-c4noc(C(F)(F)F)n4)cc3C)nc2)no1 [Compound 113, 2-[2-[2,6-dimethyl-4-[5-(trifluoromethyl)-1,2,4-oxadiazole-3-yl]phenoxyl]ethoxyl]-5-(5-methyl-1,2,4-oxadiazole-3-yl)-pyridine]	–	–	0.036 (≈ 0.078 µM)	35.22	–
Cc1cc(-c2noc(C(F)(F)F)n2)cc(C)c1OCCOc1ccc(-c2noc(C(F)(F)F)n2)cn1 [Compound 114, 2-[2-[2,6-dimethyl-4-[5-(trifluoromethyl)-1,2,4-oxadiazole-3-yl]phenoxyl]ethoxyl]-5-[5-(trifluoromethyl)-1,2,4-oxadiazole-3-yl]-pyridine]	–	–	0.038 (≈ 0.0737 µM)	36.32	–
Cc1nc(-c2cnc(OCCOc3c(C)cc(-c4noc(C(F)(F)F)n4)cc3C)c(F)c2)no1 [Compound 115, 2-[2-[2,6-dimethyl-4-[5-(trifluoromethyl)-1,2,4-oxadiazole-3-yl]phenoxyl]ethoxyl]-3-fluoro-5-(5-methyl-1,2,4-oxadiazole-3-yl)-pyridine]	–	–	0.037 (≈ 0.0772 µM)	37.55	–
Cc1cc(-c2noc(C(F)(F)F)n2)cc(C)c1OCCOc1ncc(-c2noc(C(F)(F)F)n2)cc1F [Compound 116, 2-[2-[2,6-dimethyl-4-[5-(trifluoromethyl)-1,2,4-oxadiazole-3-yl]phenoxyl]ethoxyl]-3-fluoro-5-[5-(trifluoromethyl)-1,2,4-oxadiazole-3-yl]-pyridine]	–	–	0.034 (≈ 0.0637 µM)	39.21	–
Cc1nc(-c2ccc(OCCCOc3c(C)cc(-c4noc(C(F)(F)F)n4)cc3C)cc2)no1 [Compound 117, 3-[3,5-dimethyl-4-[3-[4-(5-methyl-1,2,4-oxadiazole-3-yl]phenoxyl]propoxy]phenyl]-5-(trifluoromethyl)-1,2,4-oxadiazole]	–	–	0.033 (≈ 0.0696 µM)	33.28	–
Cc1cc(-c2noc(C(F)(F)F)n2)cc(C)c1OCCCOc1ccc(-c2noc(C(F)(F)F)n2)cc1 [Compound 118, 3-[3,5-dimethyl-4-[3-[4-[5-(trifluoromethyl)-1,2,4-oxadiazole-3-yl]phenoxyl]propoxy]phenyl]-5-(trifluoromethyl)-1,2,4-oxadiazole]	–	–	0.048 (≈ 0.0908 µM)	37.21	–
Cc1nc(-c2ccc(OCCCOc3c(C)cc(-c4noc(C(F)(F)F)n4)cc3C)nc2)no1 [Compound 119, 2-[3-[2,6-dimethyl-4-[5-(trifluoromethyl)-1,2,4-oxadiazole-3-yl]phenoxyl]propoxy]-5-(5-methyl-1,2,4-oxadiazole-3-yl]-pyridine]	–	–	0.042 (≈ 0.0883 µM)	36.28	–
Cc1nc(-c2cnc(OCCCOc3c(C)cc(-c4noc(C(F)(F)F)n4)cc3C)c(F)c2)no1 [Compound 121, 2-[3-[2,6-dimethyl-4-[5-(trifluoromethyl)-1,2,4-oxadiazole-3-yl]phenoxyl]propoxy]-3-fluoro-5-(5-methyl-1,2,4-oxadiazole-3-yl)-pyridine]	–	–	0.039 (≈ 0.079 µM)	36.17	–
Cc1cc(-c2noc(C(F)(F)F)n2)cc(C)c1OCCCOc1ncc(-c2noc(C(F)(F)F)n2)cc1F [Compound 122, 2-[3-[2,6-dimethyl-4-[5-(trifluoromethyl)-1,2,4-oxadiazole-3-yl]phenoxyl]propoxy]-3-fluoro-5-[5-(trifluoromethyl)-1,2,4-oxadiazole-3-yl]-pyridine]	–	–	0.041 (≈ 0.0749 µM)	34.87	–
Cc1cc(-c2noc(C(F)(F)F)n2)cc(C)c1OCCOc1ccc(-c2noc(C(F)(F)F)n2)cc1F [Compound 123]	0.043	35.88	–	–	–
Cc1cc(-c2noc(C(F)(F)F)n2)cc(C)c1OCCCOc1ccc(-c2noc(C(F)(F)F)n2)cc1F [Compound 124]	0.037	32.58	–	–	–
Cc1cc(-c2noc(C(F)(F)F)n2)cc(C)c1OCCCOC1CCC(C)C(C)C1 (stereo not shown) [Compound 129, 3-[4-[3-[3,4-dimethylcyclohexyloxy]propoxy]-3,5-dimethylphenyl]-5-(trifluoromethyl)-1,2,4-oxadiazole]	–	–	–	35.46	0.025 (≈ 0.0586 µM)
Cc1cc(-c2noc(C(F)(F)F)n2)cc(C)c1OCCCOc1cnc(C#N)cn1 [Compound 131, 2-cyano-5-[3-[2,6-dimethyl-4-[5-(trifluoromethyl)-1,2,4-oxadiazole-3-yl]phenoxyl]propoxy]pyrazine]	–	–	–	36.87	0.035 (≈ 0.0835 µM)
Cc1cc(-c2noc(C(F)(F)F)n2)cc(C)c1OCCCOc1ncc(C#N)cn1 [Compound 132, 2-[3-[2,6-dimethyl-4-[5-(trifluoromethyl)-1,2,4-oxadiazole-3-yl]phenoxyl]propoxy]-5-cyano-pyrimidine]	–	–	0.04 (≈ 0.0954 µM)	39.23	–
Cc1cc(-c2noc(C(F)(F)F)n2)cc(C)c1OCCCOc1ccc(C#N)nn1 [Compound 133, 3-cyano-6-[3-[2,6-dimethyl-4-[5-(trifluoromethyl)-1,2,4-oxadiazole-3-yl]phenoxyl]propoxy]pyridazine]	–	–	0.041 (≈ 0.0978 µM)	38.78	–
Cc1cc(-c2noc(C(F)(F)F)n2)cc(C)c1OCCCOc1ccc([N+](=O)[O-])cn1 [Compound 134, 2-[3-[2,6-dimethyl-4-[5-(trifluoromethyl)-1,2,4-oxadiazole-3-yl]phenoxyl]propoxy]-5-nitropyridine]	–	–	0.045 (≈ 0.103 µM)	40.25	–
Cc1cc(-c2noc(C(F)(F)F)n2)cc(C)c1OCCCOc1cnc(-c2noc(C(F)(F)F)n2)cn1 [Compound 135, 2-[5-(trifluoromethyl)-1,2,4-oxadiazole-3-yl]-5-[3-[2,6-dimethyl-4-[5-(trifluoromethyl)-1,2,4-oxadiazole-3-yl]phenoxyl]propoxy]pyrazine]	–	–	0.038 (≈ 0.0716 µM)	42.18	–
Cc1cc(-c2noc(C(F)(F)F)n2)cc(C)c1OCCCOc1ncc(-c2noc(C(F)(F)F)n2)cn1 [Compound 136, 2-[3-[2,6-dimethyl-4-[5-(trifluoromethyl)-1,2,4-oxadiazole-3-yl]phenoxyl]propoxy]-5-[5-(trifluoromethyl)-1,2,4-oxadiazole-3-yl]-pyrimidine]	–	–	0.04 (≈ 0.0754 µM)	41.23	–
Cc1cc(-c2noc(C(F)(F)F)n2)cc(C)c1OCCCOc1ccc(-c2noc(C(F)(F)F)n2)nn1 [Compound 137, 3-[5-(trifluoromethyl)-1,2,4-oxadiazole-3-yl]-6-[3-[2,6-dimethyl-4-[5-(trifluoromethyl)-1,2,4-oxadiazole-3-yl]phenoxyl]propoxy]pyridazine]	–	–	0.039 (≈ 0.0735 µM)	41.65	–
Cc1cc(CCCOc2c(C)cc(-c3noc(C(F)(F)F)n3)cc2C)on1 [Pleconaril, 3-[3,5-dimethyl-4-[5-(3-methy-1,2-oxazolyl)propoxy]phenyl]-5-(trifluonomethyl) -1,2,4-oxadiazole, reference compound]	–	–	–	17.25	0.04 (≈ 0.105 µM)
